Bridges are numbered along the chain shown (N, C = ends). Where no end group is shown, it is not given here.

The subject of one test is Aspergillus fumigatus. The experiment in a line: anti-Aspergillus fumigatus growth inhibition test in liquid medium (96-well microplates). Type of test: cell-based. Conditions: fold relative to Ard1. The protocol: The anti-Candida albicans and anti-Aspergillus fumigatus activities of the different analogues were assessed using a growth inhibition test in liquid medium made in 96-well microplates. The activity of the purified peptides was tested for different dilutions of each peptide and was compared with those of heliomycin and Ard1 quantified under the same conditions.
The spores of Aspergillus fumigatus were derived from a stock frozen at −80° C., containing 10^7 spores/ml in a 25% glycerol solution. After slow thawing at room temperature, the spores were placed in suspension in PDB culture medium (12 g Potato Dextrose Broth medium, per […] water). 10 μl of each sample were deposited in the wells of microtitration plates in the presence of 90 μl PDB culture medium supplemented with tetracycline (100 μg/ml) and cefotaxime (1 μg/ml) containing the spores (at a final concentration of 1000 spores/well). Control cultures were systematically made in which 10 μl of sample were replaced by 10 μl of sterile water. Media sterility was controlled by incubating 10 μl sterile water in the presence of 90 μl of medium. The samples were incubated at 37° C. for 24 h to 48 h in a humid atmosphere, and the antifungal activity was quantified by a score of 0 to 9 taking germination account; the size and morphology of the hyphs were determined under the binocular microscope. […].

A further test concerns C. kefyr. It counts as cell-based. The protocol: (§1) Candida yeasts (C. albicans, C. glabrata, C. dubliensis, C. tropicalis, C. kefyr, C. krusei and C. parapsilosis—donated by Dr. H. Koenig, Hôpital Civil, Strasbourg), fluconazole-resistant C. albicans (n^o245962, n^o2332, n^o246335 and n^o3552, donated by Drs. J.Meis and J. Mouton, University Hospital, Microbiology Department, Nijmegen, Netherlands), and Cryptoccocus neoformans (donated by Dr. H. Koenig, Hôpital Civil, Strasbourg) were seeded on Sabouraud-Cloramphenicol Agar slant gelose (Biomerieux) and left to incubate for 24 h at 30° C. (Candida sp.) and for 72 h at 37° C. (Cryptoccocus neoformans).
(§2) Some yeast colonies were placed in suspension in liquid Sabouraud medium (Biomerieux) to obtain a final concentration of 0.1 OD at 600 nm corresponding to 2.5.10^6 yeasts/ml.
(§3) The yeast suspension was adjusted to 5.10^3 yeast/ml in Sabouraud medium.
(§4) 100 μl of peptide dilutions (concentration of 50 with 0.097 μg/ml peptide) were deposited in microtitration plates. After adding […] of yeast suspension with 5.10^3 yeast/ml i.e. 500 yeasts, the test plates were incubated 24 h at 30° C. (Candida) under slow shaking or 72 h at 37° C. (Cryptoccocus).
(§5) Determination of minimal inhibiting concentrations (MIC) was made by measuring absorbency at 600 nm using a spectrophotometer-microtitration plate reader. The MIC score was set at a growth inhibition rate of 50%.

For the next test, the system named is Cryptoccocus neoformans. It counts as cell-based. Conditions: 72 h. The protocol:
as §1, §2, §3, §4, §5

In another test the test system is C. tropicalis. Type of test: cell-based. The protocol: as §1, §2, §3, §4, §5
Another test has as its system C. krusei. Type of test: cell-based. The protocol: as §1, §2, §3, §4, §5
A further test has as its system C. glabrata. Type of test: cell-based. The method, then: as §1, §2, §3, §4, §5
Test [1] has as its system Scedosporium inflatum (FSSP 7908 strain). The test can be described thus: Scedosporium inflatum infected model (invasive scedosporiosis), continuous infusion by osmotic pumps. As to conditions: for 50% mortality, post-infection day: controls day 7. Type of test: in vivo, mice. The protocol: Swiss OF1 mice weighing 22 g were infected by intravenous route (i.v.) with a lethal dose of Scedosporium inflatum (FSSP 7908 strain cultured on Malt Agar gelose for 7 days at 37° C.). The infecting dose was 7.10^6 spores per mouse, injected in a volume of 100 μl via the lateral tail vein.
Peptides pEM35 and pEM51 were administered continuously using ALZET 1003D osmotic pumps (flow rate: 0.97 μl/h; volume: 93 μl; infusion time: 4 days) and 1007D pumps (flow rate: 0.47 μl/h; volume: 100 μl; infusion time: 8 and half days) with intraperitoneal insertion
Groups of 8 infected mice were treated either with:
c) with pEM51 delivered i.p. by 1007D pumps at a dose of 30 mg/kg for 8 days, corresponding to a theoretical equilibrium plasma concentration of 0.3 μg/ml;
d) with pEM51 delivered i.p. by 1003D pumps at a dose of 60 mg/kg for 4 days, corresponding to a theoretical equilibrium plasma concentration of 0.6 μg/ml;
e) with pEM35 delivered i.p. by 1003D pumps at a dose of 35 mg/kg for 4 days, corresponding to a theoretical equilibrium plasma concentration of 0.35 μg/ml.
In this model of invasive scedosporiosis, inoculation of a dose of 7.10^6 spores of Scedosporium inflatum was 50% lethal on post-infection day 7. The first death occurred at 5 days and 6 days respectively after infection for the control mice group (infected, non-treated) and the placebo group (infected and with Alzet pumps). 100% mortality was observed on day 11 in the control group and 75% mortality on day 20 for the placebo group. The state of health of the mice deteriorated rapidly on and after post-infection day 3 with a morbidity score for these two groups of 28/40 and 34/40 on day 3 and 6/40 and 7/40 on post-infection day 7. Signs of encephalitis occurred on post-infection day 4.

The next test concerns A. fumigatus. It counts as cell-based. Conditions: 48 h. The protocol:
The antifungal activity was detected by a growth inhibition test in a liquid medium.
The filamentous fungi (A. fumigatus, A. flavus and A. terreus, donated by Dr. H. Koenig, Hôpital Civil, Strasbourg; and S. prolificans and F. solani donated by Drs. J. Meis and J. Mouton, University hospital, Microbioolgy Department, Nijmegen, Netherlands) were seeded on Malt-Agar slant gelose (Biomerieux) and incubated 7 days at 37° C.
The spores were then collected with 10 ml YPG medium containing 0.05% Tween 20 and filtered through a gauze. The spores were centrifuged 10 min at 1700 rpm, the residue was collected in YPG (1 g Yeast extract, 1 g Peptone, 3 g Glucose per 1 l).
The suspension was counted with a Coverslide and adjusted to 10^4 spores/ml.
100 μl of peptide dilutions (concentration of 50 with 0.097 μg/ml peptide) were deposited in microtitration plates. 100 μl with 10^4 spores/ml of filamentous fungi, i.e. 1000 spores, were then added.
The test plates were incubated 48 h at 37° C.
Determination of minimum inhibiting concentrations (MIC) was made by observing well cover rate. The MIC score was set at 50% well covering.

In the case of “DKLIGSCVWGAVNYTSNCNAECKRRGYKGGHCGSFLNVNCWCET (disulfide 7-32, 18-40, 22-42 (inferred)) [pEM35]”, the “Activity A.f. (relative activity in relation to Ard1)” value in the test with Aspergillus fumigatus is 2-4. In addition, the MIC with C. kefyr was greater than 25 µg/mL; against Cryptoccocus neoformans it was 6.25 µg/mL; against C. tropicalis, 1.56 µg/mL; in the test on C. krusei it was 1.56 µg/mL; in the test with C. glabrata it was greater than 25 µg/mL; against A. fumigatus, 6.25 µg/mL. Besides, the “delay of onset of the first death” value in test [1] (35 mg/kg for 4 days i.p. by 1003D pumps) came out at 5 days. In test [1] (35 mg/kg for 4 days i.p. pumps), the “delay of 50% mortality relative to control and placebo groups” value worked out at 8 days. In addition, in test [1] (35 mg/kg for 4 days i.p. pumps), the “mice alive on day 20 (out of 8)” value amounted to 1 mouse. For the same sequence, the “morbidity score post-infection day 5” value in test [1] (35 mg/kg for 4 days i.p. pumps) is listed as 28/40. For the same sequence, the “morbidity score post-infection day 15” value in test [1] (35 mg/kg for 4 days i.p. pumps) is reported as 8/40. The “50% mortality, post-infection day” value in test [1] (35 mg/kg for 4 days i.p. pumps) amounted to 15 days.

In the case of “DKLIGSCVWGAVNYTSNCNAECKRRGYKGGHCGSFANVNCWCQT (disulfide 7-32, 18-40, 22-42 (inferred)) [pEM31]”, in the test with Aspergillus fumigatus, the “Activity A.f. (relative activity in relation to Ard1)” value is 4-8. The MIC was greater than 25 µg/mL with C. kefyr; 12.5 µg/mL against Cryptoccocus neoformans; 6.25 µg/mL with C. tropicalis; 3.125 µg/mL in the test with C. krusei; greater than 25 µg/mL in the test with C. glabrata.

Take “DKLIGSCVWGAVNYTSNCNAECKRRGYKGGHCGSFLNVNCWCQT (disulfide 7-32, 18-40, 22-42 (inferred)) [pEM46]”: the “Activity A.f. (relative activity in relation to Ard1)” value in the test with Aspergillus fumigatus was 6-8. Also, the MIC was greater than 25 µg/mL in the test with C. kefyr; 6.25 µg/mL against Cryptoccocus neoformans; 3.125 µg/mL in the test on C. tropicalis; 1.56 µg/mL in the test with C. krusei; greater than 25 µg/mL in the test on C. glabrata; 3.125 µg/mL in the test with A. fumigatus.

In the case of “DKLIGSCVWGAVNYTSNCRAECKRRGYKGGHCGSFANVNCWCET (disulfide 7-32, 18-40, 22-42 (inferred)) [pEM51]”, in the test with Aspergillus fumigatus, the “Activity A.f. (relative activity in relation to Ard1)” value turned out to be 1. The sequence also registered an MIC against C. kefyr greater than 25 µg/mL. In the test on Cryptoccocus neoformans, the MIC was found to be 1.56 µg/mL. The MIC against C. tropicalis is 3.125 µg/mL. This sequence yielded an MIC against C. krusei of 1.56 µg/mL. Besides, the MIC against C. glabrata was greater than 25 µg/mL. The “therapeutic efficacy in terms of survival” value in test [1] (30 mg/kg for 8 days) is “very good therapeutic efficacy”. For the same sequence, the “delay of onset of the first death” value in test [1] (30 mg/kg for 8 days i.p. by 1007D pumps, 7.10^6 spores i.v., 8 mice) came out at 9 days. Besides, in test [1] (30 mg/kg for 8 days i.p. pumps), the “mice alive on day 20 (out of 8)” value was 5 mice, the “morbidity score post-infection day 5 until day 14” value is recorded as 24/40 and the “morbidity score post-infection day 20” value is on record as 11/40. The “morbidity score post-infection day 4” value in test [1] (30 mg/kg for 8 days i.p. pumps, 40 = all 8 mice healthy) is on record as 28/40. Further, the “delay of onset of the first death” value in test [1] (60 mg/kg for 4 days i.p. by 1003D pumps) is 4 days. In test [1] (60 mg/kg for 4 days i.p. pumps), the “delay of 50% mortality in relation to control and placebo groups” value turned out to be 5 days; the “mice alive on day 20 (out of 8)” value is 3 mice; the “morbidity score post-infection day 5” value was 30/40; the “morbidity score post-infection day 14” value is listed as 6/40. Moreover, the “50% mortality, post-infection day” value in test [1] (60 mg/kg for 4 days i.p. pumps) turned out to be 12 days.

As usually defined, the MIC is the lowest concentration found to suppress growth.

Values taken from US20030208035A1, “Antifungal and/or antibacterial peptides, preparation methods, compositions containing same and methods of treating mammals and/or plants” (priority 2000, published 2003).
